Here are results for 22 compounds from paper PMC8840081, “Phenylalanine-Based AMPA Receptor Antagonist as the Anticonvulsant Agent with Neuroprotective Activity—In Vitro and In Vivo Studies” (Molecules, 2022).

Assay [1] deals with SH-SY5Y neuroblastoma cells. As to the kind of experiment: neuroprotection against 6-OHDA-induced LDH release. The assay is classed as cell-based, human. The note with it: compound 50 µM. How it is done:
(§1) All cell culture protocols and assay conditions were applied as we reported previously. SH-SY5Y (ATCC® CRL-2266™) cell line was purchased from ATCC (Manassas, VA, USA). IMR-32 (ATCC® CCL-127™) cell line was kindly provided by the Department of Oncogenomics, Academisch Medisch Centrum, Amsterdam, Holland. Before each test SH-SY5Y or IMR-32 cells were seeded in 96-well plates with transparent bottom at a concentration of 2.5 × 10^4 cells/well in 100 μL of respective cell culture medium and cultured for 24 h to reach 70% confluence. • Cell Viability
(§2) CytoTox-ONE™ Homogeneous Membrane Integrity Assay, which based on the LDH release, was purchased from Promega (Madison, WI, USA). SH-SY5Y or IMR-32 cells were seeded in 96-well white plates with transparent bottom. For neuroprotective studies, the cells were preincubated first for 1 h with compound 1, 8 or reference antioxidants AA, TX (all at the concentration of 50 μM) and next the neurotoxin 6-OHDA (Sigma-Aldrich, Inc., St. Louis, MO, USA) was added at final concentration of 50 μM (SH-SY5Y assay) or 200 µM (IMR-32 assay). After 24 h of incubation, the CytoTox-ONE™ was added to each well and the cells were incubated next for 10 min at room temperature. The fluorescence was measured using a microplate reader EnSpire (PerkinElmer, Waltham, MA, USA) with an excitation wavelength of 560 nm and an emission wavelength of 590 nm. All measurements were performed in triplicate and results are shown as mean ± SD. The similar studies were also performed with SH-SY5Y cells injured by 100 μM of 6-OHDA (Figure S1, Supporting Materials). • ROS Assay

Assay [2] has as its system IMR-32 neuroblastoma cells. The assay can be described thus: neuroprotection against 6-OHDA-induced LDH release. The assay is classed as cell-based, human. Conditions: IMR-32, compound 50 µM, 1 h pretreatment, 200 µM 6-OHDA, 24 h. How it is done: as §1, §2
Assay [3] has as its system native AMPA receptors. Conditions: cited from earlier work; for Ki / IC50: native AMPA receptors, rat brain membranes, mean of three experiments; for Ki: read-out: [3H]AMPA Ki; for IC50: read-out: [3H]AMPA IC50 (footnote 4: IC50 values).
Assay [4] can be described thus: ferric reducing antioxidant power (FRAP) assay. Conditions: % of ascorbic acid activity; compounds and AA at 1 mM. How it is done: The total antioxidant potential of aryl-substituted phenylalanine derivatives was determined using FRAP assay. The FRAP reagent was prepared first by mixing acetate buffer (300 mM, pH 3.6), a solution of 10 mM TPTZ (2,4,6-tripyridyl-s-triazine, Sigma-Aldrich, Inc., St. Louis, MO, USA) in 40 mM HCl and 20 mM of iron (III) chloride hexahydrate (FeCl3 × 6H2O, Chempur, Piekary Śląskie, Poland) at 10:1:1 (v/v/v). The FRAP reagent (190 μL) and 1 mM of tested compound (10 μL) was added next to each well, mixed and incubated for 30 min. The absorbance was measured using a microplate reader EnSpire (PerkinElmer, Waltham, MA USA) at 593 nm. AA (1 mM, AMARA, Kraków, Poland) was used as the reference antioxidant. The results were expressed as % of ascorbic acid activity (%AAA). Analyses were performed in triplicate. • ORAC-FL

The nature of assay [5]: oxygen radical absorbance capacity fluorescent (ORAC-FL) assay. Conditions: Trolox equivalent, calculated at 5 µM of compounds and Trolox. How it is done:
The ORAC-FL was performed according to procedure described in the literature. The reagents used in this assay, TX, fluorescein and 2,2′-azobis(2-amidinopropane) dihydrochloride (AAPH), were purchased from Sigma-Aldrich, Inc., St. Louis, MO, USA. The prepared ORAC-FL reagent consisted of 0.3 μM of fluorescein and 100 µM of AAPH dissolved in PBS buffer. The compounds and the reference antioxidant TX were tested at the concentration 2.5 µM and the results were compared to the blank in which no antioxidant was present. The assays were performed in black 96-well plates. The fluorescence readings were taken by a microplate reader EnSpire (PerkinElmer, Waltham, MA, USA) every minute for a duration of 240 min. The excitation wavelength was 485 nm and the emission wavelength was 520 nm. The area under the fluorescence decay curve (AUC) was calculated next by GraphPad Prism™ software (version 5.01, San Diego, CA, USA). All measurements were performed in triplicate. The TX equivalent (TE) was calculated next using the following Equation (1):TE = [(AUCsample − AUCblank)/(AUCTX − AUCblank)] × [CTX/Csample](1)

[6] abbreviates: 1 h pretreatment, 50 µM 6-OHDA, 24 h.

A value given as a limit tells only on which side of the number the result lay.

As to `O=C1O[C@H]([C@@H](O)CO)C(O)=C1O` [AA, ascorbic acid, reference compound], the “6-OHDA-induced release of LDH (neuroprotection)” value in assay [1] (100 µM 6-OHDA) is “neuroprotective effect was not observed”; in assay [1] (setting [6]) it was “no statistically significant neuroprotective effect”; in assay [2], “no statistically significant neuroprotective effect”.
For the compound `NC(Cc1cc(-c2cncc(O)c2)c(Cl)c([N+](=O)[O-])c1)C(=O)O` (centres unmarked) [Compound 2], in assay [3], the “selectivity over NMDA and KA receptors” value is “high selectivity”; the Ki is 2 µM. Further, the “FRAP (%AAA)” value in assay [4] is 691.21 %AAA. Further, in assay [5], the “ORAC (TE)” value is given as 3.15 TE.
`NC(Cc1cc(Cl)c(O)c(-c2cccc(O)c2)c1)C(=O)O` (centres unmarked) [Compound 3]: in assay [3], the Ki was 7.9 µM. Besides, the “FRAP (%AAA)” value in assay [4] is reported as 311.56 %AAA. Also, in assay [5], the “ORAC (TE)” value is recorded as 4.61 TE.
Turning to `NC(Cc1cc(Cl)c(Cl)c(-c2ccc(O)c(O)c2)c1)C(=O)O` (centres unmarked) [Compound 4], in assay [3], the IC50 is 12 µM. Moreover, the “FRAP (%AAA)” value in assay [4] was 177.23 %AAA. The “ORAC (TE)” value in assay [5] is listed as 4.02 TE.
With `NC(Cc1cc(-c2ccc(O)cc2)cc([N+](=O)[O-])c1)C(=O)O` (centres unmarked) [Compound 5], the Ki in assay [3] was 21 µM. Also, the “FRAP (%AAA)” value in assay [4] was 96.32 %AAA. In addition, in assay [5], the “ORAC (TE)” value is given as 4.32 TE.
On to `Nc1ccc(CC(N)C(=O)O)cc1-c1cccc(O)c1` (centres unmarked) [Compound 6], for which, in assay [3], the Ki was 9.1 µM. Further, the “FRAP (%AAA)” value in assay [4] was found to be 67.35 %AAA. Besides, the “ORAC (TE)” value in assay [5] is recorded as 6.09 TE.
In the case of `NC(Cc1cc(Cl)cc(-c2ccc(O)cc2)c1)C(=O)O` (centres unmarked) [Compound 7], the Ki in assay [3] is 46 µM. Further, the “FRAP (%AAA)” value in assay [4] is 49.39 %AAA. In addition, the “ORAC (TE)” value in assay [5] was 3.29 TE.
For the compound `NC(Cc1cc(-c2cccc(O)c2)cc([N+](=O)[O-])c1)C(=O)O` (centres unmarked) [Compound 9], the Ki in assay [3] is 8.2 µM. For the same compound, in assay [4], the “FRAP (%AAA)” value stood at 43.43 %AAA. Further, in assay [5], the “ORAC (TE)” value is 4.67 TE.
On to `NC(Cc1ccc([N+](=O)[O-])c(-c2cccc(O)c2)c1)C(=O)O` (centres unmarked) [Compound 10], for which the Ki in assay [3] was 21 µM. The “FRAP (%AAA)” value in assay [4] was determined as 32.04 %AAA. Besides, the “ORAC (TE)” value in assay [5] is given as 1.43 TE.
Turning to `NC(Cc1cc(Cl)c(Cl)c(-c2cc(O)cc(O)c2)c1)C(=O)O` (centres unmarked) [Compound 11], the IC50 in assay [3] was 16 µM. Besides, the “FRAP (%AAA)” value in assay [4] is on record as 28.90 %AAA. Further, in assay [5], the “ORAC (TE)” value is listed as 4.18 TE.
With `Nc1c(-c2cccc(O)c2)cc(CC(N)C(=O)O)cc1[N+](=O)[O-]` (centres unmarked) [Compound 12], the inhibitory constant (Ki) in assay [3] is 14 µM. Also, in assay [4], the “FRAP (%AAA)” value was found to be 24.93 %AAA. Also, the “ORAC (TE)” value in assay [5] is 4.27 TE.
For the compound `NC(Cc1ccc(Cl)c(-c2cccc(O)c2)c1)C(=O)O` (centres unmarked) [Compound 13], the Ki in assay [3] was 9.2 µM. Also, in assay [4], the “FRAP (%AAA)” value amounted to 24.08 %AAA. Besides, the “ORAC (TE)” value in assay [5] is 2.86 TE.
Consider `Nc1c(Cl)cc(CC(N)C(=O)O)cc1-c1cccc(O)c1` (centres unmarked) [Compound 14], for which the Ki in assay [3] was 10 µM. The “FRAP (%AAA)” value in assay [4] was 23.80 %AAA. Moreover, in assay [5], the “ORAC (TE)” value is 4.75 TE.
Take `NC(Cc1cc(Cl)c(Cl)c(-c2ccc(O)cc2)c1)C(=O)O` (centres unmarked) [Compound 15]: the concentration for half-maximal inhibition (IC50) in assay [3] is 33 µM. Further, in assay [4], the “FRAP (%AAA)” value was determined as 13.70 %AAA. Also, in assay [5], the “ORAC (TE)” value is 1.45 TE.
Turning to `NC(Cc1cc(Cl)c(Cl)c(-c2ccccc2O)c1)C(=O)O` (centres unmarked) [Compound 16], the IC50 in assay [3] is 85 µM. In assay [4], the “FRAP (%AAA)” value is 10.32 %AAA. For the same compound, the “ORAC (TE)” value in assay [5] is given as 1.54 TE.
Consider `NC(Cc1ccc(Cl)c(-c2ccc(O)cc2)c1)C(=O)O` (centres unmarked) [Compound 17], for which the Ki in assay [3] was 65 µM. Besides, in assay [4], the “FRAP (%AAA)” value is recorded as 9.13 %AAA. Besides, the “ORAC (TE)” value in assay [5] is given as 1.96 TE.
For the compound `NC(Cc1cc(-c2cccc(O)c2)c(Cl)c([N+](=O)[O-])c1)C(=O)O` (centres unmarked) [Compound 18], in assay [3], the “selectivity over NMDA and KA receptors” value is “high selectivity”; the Ki was 3.1 µM. Further, in assay [4], the “FRAP (%AAA)” value is 6.29 %AAA. Besides, the “ORAC (TE)” value in assay [5] is given as 1.34 TE.
Regarding `NC(Cc1cccc(-c2cccc(O)c2)c1)C(=O)O` (centres unmarked) [Compound 19], the IC50 in assay [3] is 9.9 µM. Further, the “FRAP (%AAA)” value in assay [4] worked out at 4.94 %AAA. In assay [5], the “ORAC (TE)” value was 1.96 TE.
Regarding `NC(Cc1ccc([N+](=O)[O-])c(-c2ccc(O)cc2)c1)C(=O)O` (centres unmarked) [Compound 20], the inhibition constant (Ki) in assay [3] is 64 µM. Further, the “FRAP (%AAA)” value in assay [4] was 4.41 %AAA. Moreover, in assay [5], the “ORAC (TE)” value was 1.62 TE.
Consider `NC(Cc1cc(-c2ccc(O)cc2)c(Cl)c([N+](=O)[O-])c1)C(=O)O` (centres unmarked) [Compound 21], for which, in assay [3], the Ki is 23 µM. Moreover, the “FRAP (%AAA)” value in assay [4] was 2.76 %AAA. The “ORAC (TE)” value in assay [5] is listed as 2.56 TE.
Turning to `COc1c(Cl)cc(CC(N)C(=O)O)cc1-c1cccc(O)c1` (centres unmarked) [Compound 22], the Ki in assay [3] was greater than 100 µM. Further, in assay [4], the “FRAP (%AAA)” value is given as 2.76 %AAA. The “ORAC (TE)” value in assay [5] is 1.38 TE.
`Cc1c(C)c2c(c(C)c1O)CCC(C)(C(=O)O)O2` (centres unmarked) [TX, Trolox, reference compound]: the results for the “6-OHDA-induced release of LDH (neuroprotection)” value in assay [1] (100 µM 6-OHDA), in assay [1] (setting [6]) and in assay [2] were “neuroprotective effect was not observed”, “no statistically significant neuroprotective effect” and “no statistically significant neuroprotective effect”, respectively.
